Reference: patent US20240116877A1, “KIT KINASE INHIBITORS AND METHODS OF USE THEREOF” (Deciphera Pharmaceuticals, LLC, priority 2021, published 2024)
pIC50: −log10 of the molar value. Read-outs that look alike come from different tables or passages of the source.

How the values were obtained:
c-KIT kinase (uKIT) = c-KIT kinase (uKIT) (Homo sapiens (Human), UniProt P10721); test: Biochemical Assay for uKIT (coupled pyruvate kinase/lactate dehydrogenase assay); conditions: Inhibition of biochemical activity of uKIT kinase; 1 mM ATP
Procedure: Biochemical Assay for uKIT
Activity of c-KIT kinase (SEQ. ID NO. 1 or SEQ. ID NO. 2) was determined spectroscopically using a coupled pyruvate kinase/lactate dehydrogenase assay that continuously monitors the ATP hydrolysis-dependent oxidation of NADH (e.g., Schindler et al. Science (2000) 289: 1938-1942). Assays were conducted in 384-well plates (100 μL final volume) using 16 nM (Decode, SEQ ID No. 1) or 4.36 nM (Signal Chem, SEQ. ID No. 2), 0.7 mg/mL PE4Y substrate, 1.5 units pyruvate kinase, 2.1 units lactate dehydrogenase, 1 mM phosphoenol pyruvate, 0.28 mM NADH and 1 mM ATP in assay buffer (100 mM Tris, pH 7.5, 15 mM MgCl2, 0.5 mM DTT, 0.1% octyl-glucoside, 0.002% (w/v) BSA, and 0.002% Triton X-100). Inhibition of KIT was measured by adding serial diluted test compound (final assay concentration of 1% DMSO). A decrease in absorption at 340 nm was monitored continuously for 6 h at 30° C. on a multi-mode microplate reader (BioTek). The reaction rate was calculated using the 2-3 h time frame. The reaction rate at each concentration of compound was converted to percent inhibition using controls (i.e., reaction with no test compound and reaction with a known inhibitor) and IC50 values were calculated using software routines in Prism (GraphPad software).

Ba/F3 KIT mutant cells = test: Ba/F3 mutant KIT Cell Proliferation Assays (resazurin); type: cell-based; conditions: Mus musculus, BaF3
Procedure: Ba/F3 KIT Mutant Cell Line Transduction and Expansion
Several different KIT cDNA encoding various primary and secondary mutations were cloned into a pLV(Exp]-CMV>(cDNA):IRES:puro vector. These vectors were constructed and packaged by VectorBuilder.
Exponentially grown Ba/F3 cells (1×10^6 cells in 1 ml medium) were infected with 60 μl of viral suspension in a 6-well plate in the presence of mIL-3 (10 ng/ml) and polybrene (7.5 μg/ml) (Vector Builder) and incubated for 16 h. After 16 h, the cells were centrifuged, and viral supernatant was discarded. The cells were then re-suspended in fresh medium and allowed to recover for another day. After 72 h post infection, the cells were seeded with complete medium with mIL-3 and with 1 μg/ml puromycin added to medium for selection. After 48 h, cells without viral infection die, whereas successfully transduced cells were collected and changed to fresh medium with 5 ng/ml of IL-3. After a week or two with gradual withdrawal of mIL3 the cells that can continue to proliferate in the absence of mIL3 were exponentially expanded and were frozen down for banking.
Ba/F3 mutant KIT Cell Proliferation Assays
(§1) A serial dilution of test compound was dispensed into a 384-well black clear bottom plate (Corning, Corning, NY). Six hundred and twenty-five cells were added per well in 50 μL complete growth medium. Plates were incubated for 68 h at 37° C., 5% CO2, 95% humidity. At the end of the incubation period 10 μL of a 440 μM solution of resazurin (Sigma, St. Louis, MO) in PBS was added to each well and incubated for an additional 5 h at 37° C., 5% CO2, 95% humidity. Plates were read on a Synergy2 reader (Biotek, Winooski, VT) using an excitation of 540 nm and an emission of 600 nm. Data was analyzed using Prism software (Graphpad, San Diego, CA) to calculate IC50 values.

GIST 430 cells = test: GIST 430 Cell Proliferation Assay (resazurin); type: cell-based; conditions: Homo sapiens; GIST430 cell proliferation
Procedure: GIST 430 Cell Proliferation Assay
as §1, with “a 96-well” for “a 384-well”, “NY). Five thousand” for “NY). Six hundred and twenty-five”, “in 200” for “in 50”, “for 115” for “for 68”, “at 37 degrees Celsius,” for “at 37° C.,”, “period 40” for “period 10”

[1] = Ba/F3 KIT AYdup-D816G mutant cell proliferation, read-out: AYdup-D816G IC50
[2] = Ba/F3 KIT AYdup-V654A mutant cell proliferation, read-out: AYdup-V654A IC50
[3] = Ba/F3 KIT exon11del-V654A mutant cell proliferation, read-out: exon11del-V654A IC50
[4] = Ba/F3 KIT exon11del-Y823D mutant cell proliferation, read-out: exon11del-Y823D IC50
[5] = Ba/F3 KIT AYdup mutant cell proliferation, read-out: AYdup IC50

Sequence of c-KIT kinase (uKIT) (P10721 other isoform, or with tags, fused parts or gaps): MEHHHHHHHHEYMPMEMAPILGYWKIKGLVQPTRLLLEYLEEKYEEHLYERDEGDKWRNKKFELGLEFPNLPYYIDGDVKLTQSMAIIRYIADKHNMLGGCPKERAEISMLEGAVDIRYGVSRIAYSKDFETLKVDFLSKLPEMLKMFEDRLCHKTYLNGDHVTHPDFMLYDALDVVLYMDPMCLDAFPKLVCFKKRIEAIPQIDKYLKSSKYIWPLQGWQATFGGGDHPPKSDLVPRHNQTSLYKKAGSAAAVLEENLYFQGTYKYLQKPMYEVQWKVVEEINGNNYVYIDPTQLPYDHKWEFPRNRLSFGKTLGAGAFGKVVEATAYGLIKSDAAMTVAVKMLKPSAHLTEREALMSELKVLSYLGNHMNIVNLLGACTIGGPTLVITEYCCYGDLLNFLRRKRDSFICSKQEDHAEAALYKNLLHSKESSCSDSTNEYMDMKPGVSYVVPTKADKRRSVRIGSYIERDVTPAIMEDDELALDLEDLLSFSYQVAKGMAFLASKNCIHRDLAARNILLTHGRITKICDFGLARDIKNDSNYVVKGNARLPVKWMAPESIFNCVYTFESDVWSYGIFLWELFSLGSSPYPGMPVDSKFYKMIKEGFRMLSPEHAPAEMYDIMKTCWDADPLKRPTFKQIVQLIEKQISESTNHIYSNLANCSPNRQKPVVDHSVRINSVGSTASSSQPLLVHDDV

Structure (SMILES) | pIC50 (c-KIT kinase (uKIT)) | pIC50 (Ba/F3 KIT mutant cells; [1]) | pIC50 (Ba/F3 KIT mutant cells; [2]) | pIC50 (Ba/F3 KIT mutant cells; [3]) | pIC50 (Ba/F3 KIT mutant cells; [4]) | pIC50 (GIST 430 cells) | pIC50 (Ba/F3 KIT mutant cells; [5])
COCCOc1cc(F)c2c(Nc3ccc(NC(=O)N[C@H]4CC[C@H](C(F)(F)F)CC4)cc3)ncnc2c1 [Example 30] | ≥ 8.00 | ≥ 8.00 | 7.00 to 8.00 | 7.00 to 8.00 | 7.00 to 8.00 | ≥ 8.00 | –
COCCOc1cc(F)c2c(Nc3ccc(NC(=O)CCCC(C)C)cc3)ncnc2c1 [Example 31] | ≥ 8.00 | ≥ 8.00 | 7.00 to 8.00 | 7.00 to 8.00 | 6.00 to 7.00 | 7.00 to 8.00 | 7.00 to 8.00
COCCOc1cc(F)c2c(Nc3ccc(NC(=O)NCCC4(OC)CC4)cc3)ncnc2c1 [Example 32] | ≥ 8.00 | ≥ 8.00 | 7.00 to 8.00 | 7.00 to 8.00 | 7.00 to 8.00 | 7.00 to 8.00 | ≥ 8.00
COCCOc1cc(F)c2c(Nc3ccc(NC(=O)NC4CCC(F)(F)CC4)cc3)ncnc2c1 [Example 33] | 7.00 to 8.00 | 7.00 to 8.00 | 7.00 to 8.00 | 6.00 to 7.00 | 6.00 to 7.00 | 7.00 to 8.00 | –
COCCOc1cc(F)c2c(Nc3ccc(NC(=O)NC4CCC(C)(C)C4)cc3)ncnc2c1 (stereo not shown) [Example 34] | ≥ 8.00 | ≥ 8.00 | 7.00 to 8.00 | ≥ 8.00 | 7.00 to 8.00 | 7.00 to 8.00 | –
COCCOc1cc(F)c2c(Nc3ccc(NC(=O)NCCC4(C#N)CC4)cc3)ncnc2c1 [Example 35] | ≥ 8.00 | 7.00 to 8.00 | 7.00 to 8.00 | 7.00 to 8.00 | 7.00 to 8.00 | 7.00 to 8.00 | ≥ 8.00
COCCOc1cc(F)c2c(Nc3ccc(NC(=O)N[C@H]4CC[C@@H](C(F)(F)F)CC4)cc3)ncnc2c1 [Example 36] | ≥ 8.00 | 7.00 to 8.00 | 7.00 to 8.00 | ≥ 8.00 | 6.00 to 7.00 | 7.00 to 8.00 | –
COC(C)(C)CCNC(=O)Nc1ccc(Nc2ncnc3cc(OCCN4CCOCC4)cc(F)c23)cc1 [Example 37] | 7.00 to 8.00 | 7.00 to 8.00 | 7.00 to 8.00 | 7.00 to 8.00 | 7.00 to 8.00 | ≥ 8.00 | ≥ 8.00
COCCOc1cc(F)c2c(Nc3ccc(NC(=O)NCCOC(C)(C)C)cc3)ncnc2c1 [Example 38] | 7.00 to 8.00 | ≥ 8.00 | 7.00 to 8.00 | ≥ 8.00 | ≥ 8.00 | ≥ 8.00 | ≥ 8.00
CC(C)(F)CCNC(=O)Nc1ccc(Nc2ncnc3cc(OCCN4CCOCC4)cc(F)c23)cc1 [Example 39] | ≥ 8.00 | 7.00 to 8.00 | 7.00 to 8.00 | 7.00 to 8.00 | 7.00 to 8.00 | ≥ 8.00 | ≥ 8.00
COCCOc1cc(F)c2c(Nc3ccc(NC(=O)CC4CCN(C)CC4)cc3)ncnc2c1 [Example 40] | < 6.00 | – | – | < 6.00 | – | < 6.00 | –
COCCOc1cc(F)c2c(Nc3ccc(NC(=O)CC4CCC(F)(F)CC4)cc3)ncnc2c1 [Example 41] | ≥ 8.00 | 7.00 to 8.00 | 7.00 to 8.00 | 7.00 to 8.00 | 7.00 to 8.00 | 7.00 to 8.00 | ≥ 8.00
COCCOc1cc(F)c2c(Nc3ccc(NC(=O)NCCOC(F)(F)F)cc3)ncnc2c1 [Example 42] | ≥ 8.00 | 7.00 to 8.00 | 7.00 to 8.00 | 7.00 to 8.00 | 7.00 to 8.00 | 7.00 to 8.00 | ≥ 8.00
COCCOc1cc(F)c2c(Nc3ccc(NC(=O)C4(C(=O)NCC(C)(C)C)CC4)cc3)ncnc2c1 [Example 44] | 7.00 to 8.00 | 6.00 to 7.00 | 6.00 to 7.00 | 6.00 to 7.00 | 6.00 to 7.00 | 6.00 to 7.00 | 7.00 to 8.00
COCCOc1cc(F)c2c(Nc3ccc(NC(=O)CCCC(C)(C)F)cc3)ncnc2c1 [Example 45] | ≥ 8.00 | 7.00 to 8.00 | 7.00 to 8.00 | 7.00 to 8.00 | 6.00 to 7.00 | ≥ 8.00 | ≥ 8.00
COCCOc1cc(F)c2c(Nc3ccc(NC(=O)OCCC(C)(C)C#N)cc3)ncnc2c1 [Example 46] | ≥ 8.00 | 7.00 to 8.00 | 6.00 to 7.00 | 7.00 to 8.00 | 6.00 to 7.00 | 7.00 to 8.00 | ≥ 8.00
COCCOc1cc(F)c2c(Nc3ccc(NC(=O)COCCC(C)C)cc3)ncnc2c1 [Example 47] | ≥ 8.00 | 7.00 to 8.00 | 7.00 to 8.00 | 7.00 to 8.00 | 7.00 to 8.00 | ≥ 8.00 | ≥ 8.00
COCCOc1cc(F)c2c(Nc3ccc(NC(=O)COCC(F)(F)F)cc3)ncnc2c1 [Example 48] | 6.00 to 7.00 | 6.00 to 7.00 | 6.00 to 7.00 | 6.00 to 7.00 | 6.00 to 7.00 | 6.00 to 7.00 | 7.00 to 8.00
COCCOc1cc(F)c2c(Nc3ccc(NC(=O)COCC(C)C)cc3)ncnc2c1 [Example 49] | ≥ 8.00 | 7.00 to 8.00 | 6.00 to 7.00 | 7.00 to 8.00 | 6.00 to 7.00 | 7.00 to 8.00 | ≥ 8.00
COCCOc1cc(F)c2c(Nc3ccc(NC(=O)C4(C(=O)N(C)CC(C)(C)C)CC4)cc3)ncnc2c1 [Example 50] | 6.00 to 7.00 | < 6.00 | 6.00 to 7.00 | < 6.00 | < 6.00 | 6.00 to 7.00 | 6.00 to 7.00
COCCOc1cc(F)c2c(Nc3ccc(NC(=O)CC(=O)N(C)CC(C)(C)C)cc3)ncnc2c1 [Example 51] | 7.00 to 8.00 | 7.00 to 8.00 | 7.00 to 8.00 | 7.00 to 8.00 | 7.00 to 8.00 | ≥ 8.00 | 7.00 to 8.00
COCCOc1cc(F)c2c(Nc3ccc(NC(=O)OCCC(C)(C)F)cc3)ncnc2c1 [Example 52] | 7.00 to 8.00 | 7.00 to 8.00 | 6.00 to 7.00 | 7.00 to 8.00 | 6.00 to 7.00 | 7.00 to 8.00 | ≥ 8.00
COCCOc1cc(F)c2c(Nc3ccc(NC(=O)CCN4CCCC4=O)cc3)ncnc2c1 [Example 53] | < 6.00 | < 6.00 | < 6.00 | < 6.00 | – | 6.00 to 7.00 | 6.00 to 7.00
COCCOc1cc(F)c2c(Nc3ccc(NC(=O)NCCN4CCCC4=O)cc3)ncnc2c1 [Example 54] | 7.00 to 8.00 | 6.00 to 7.00 | 6.00 to 7.00 | 6.00 to 7.00 | 6.00 to 7.00 | 7.00 to 8.00 | 7.00 to 8.00
COCCOc1cc(F)c2c(Nc3ccc(NC(=O)C(C)NC(=O)CC(C)C)cc3)ncnc2c1 (stereo not shown) [Example 55] | 6.00 to 7.00 | – | 6.00 to 7.00 | 7.00 to 8.00 | 6.00 to 7.00 | 6.00 to 7.00 | –
COCCOc1cc(F)c2c(Nc3ccc(NC(=O)COCC4CCCC4)cc3)ncnc2c1 [Example 56] | ≥ 8.00 | – | 7.00 to 8.00 | 7.00 to 8.00 | 7.00 to 8.00 | ≥ 8.00 | –
